According to patent US20110111016A1, “NON-DNA BASE-CONTAINING POLYNUCLEOTIDE COMPOSITIONS AND THEIR USE FOR THE MODULATION OF IMMUNE RESPONSES” (priority 2009, published 2011):

What was measured:
human TLR8 = molecular target: T1, human TLR8 (Homo sapiens, UniProt Q9NR97); test: NF-κB activation (secreted alkaline phosphatase reporter) in HEK293 cells expressing human TLR8; format: cell-based; conditions: HEK293/hTLR8 cell line; polynucleotide final concentration 10 μg/mL; 16-20 hours
T1 construct: host or cells: HEK293
T1 sequence (Q9NR97 27-1041): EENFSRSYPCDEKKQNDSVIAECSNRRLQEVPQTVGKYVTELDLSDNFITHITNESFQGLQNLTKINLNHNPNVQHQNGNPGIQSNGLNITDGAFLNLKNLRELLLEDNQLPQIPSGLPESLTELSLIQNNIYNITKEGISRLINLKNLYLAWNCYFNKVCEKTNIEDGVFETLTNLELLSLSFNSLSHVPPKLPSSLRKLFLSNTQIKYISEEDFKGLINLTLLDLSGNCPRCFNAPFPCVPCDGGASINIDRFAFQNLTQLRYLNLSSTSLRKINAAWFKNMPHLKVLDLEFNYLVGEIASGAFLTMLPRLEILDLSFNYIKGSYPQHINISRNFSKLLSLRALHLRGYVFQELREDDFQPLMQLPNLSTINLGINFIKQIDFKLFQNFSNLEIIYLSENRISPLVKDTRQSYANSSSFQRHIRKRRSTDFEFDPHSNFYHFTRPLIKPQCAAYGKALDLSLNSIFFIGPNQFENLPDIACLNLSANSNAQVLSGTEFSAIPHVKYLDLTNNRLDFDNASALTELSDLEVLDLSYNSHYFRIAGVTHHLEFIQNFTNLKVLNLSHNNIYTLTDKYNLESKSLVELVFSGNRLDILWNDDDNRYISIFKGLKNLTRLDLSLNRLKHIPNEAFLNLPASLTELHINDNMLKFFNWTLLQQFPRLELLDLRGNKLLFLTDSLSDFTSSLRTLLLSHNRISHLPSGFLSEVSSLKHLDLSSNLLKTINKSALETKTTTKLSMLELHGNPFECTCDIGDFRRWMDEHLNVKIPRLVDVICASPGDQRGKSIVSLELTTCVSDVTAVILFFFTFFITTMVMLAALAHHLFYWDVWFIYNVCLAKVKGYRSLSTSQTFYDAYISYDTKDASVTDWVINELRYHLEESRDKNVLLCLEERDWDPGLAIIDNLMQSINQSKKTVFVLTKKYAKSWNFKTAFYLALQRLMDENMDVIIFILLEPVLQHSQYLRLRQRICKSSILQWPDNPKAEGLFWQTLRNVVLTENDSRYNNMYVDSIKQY
Protocol: Toll-like receptors (TLR) are known to interact with a number of natural and synthetic molecules that can function as immune adjuvants. Examples of these molecules are Poly (I:C) polynucleotides, lipopolysaccharide and CpG-containing polynucleotides. […] TLR engagement was determined by measurement of secreted alkaline phosphatase, under the control of a reporter inducible by NF-κB. Appropriate positive controls were used for each TLR. The non-DNA base-containing polynucleotides were dissolved in sterile water at a concentration of 100 μg/mL, and used at a final concentration of 10 μg/mL. HEK293 cells containing the appropriate TLR and NF-κB reporting system (InvivoGen, San Diego, Calif., USA) were placed in wells of 96 well plates (25,000-50,000 cells, in a final volume of 200 μL medium designed for the detection of NF-κB induced secreted alkaline phosphatase expression), and incubated with non-DNA base-containing polynucleotides or positive controls for 16-20 hours. TLR activating activity was determined by measurement of absorbance at 650 nm wavelength using a Coulter AD340C absorbance detector. The results shown are expressed as Optical Density (OD).

human PBMC = test: Induction of cytokines and chemokines from human PBMC, comparison with CpG polynucleotides (Milliplex MAP kit); format: cell-based; conditions: for Cytokine, IL-6 / Cytokine, IL-10 / Cytokine, MCP-1 / Cytokine, RANTES (CCL5): human PBMC culture supernatant, 48 h, final concentration 10 μg/mL; for Chemokine (MCP-1, RANTES) inducing activity towards human PBMC (in words) / Interleukin (cytokine) inducing activity towards human PBMC (in words): in comparison to LPS and MCC, Table 14
Protocol: LPS and MCC were included as positive controls as described in Example 7. PBMC were isolated from whole blood using standard Ficoll-Paque Plus (GE Healthcare Life Sciences, Baie d'Urfé, QC, Canada) gradient centrifugation, and placed in tissue culture plates at a concentration of 1×10^6 cells/mL (total volume: 1 mL in RPMI 1640 medium containing 10% heat-inactivated FBS (both from Wisent, St-Bruno, QC, Canada) and 50 μg/mL gentamycin sulfate (Sigma-Aldrich Canada, Oakville, ON, Canada). Non-DNA base-containing polynucleotide SEQ ID NOs: 1, 2, 3, 4, 5, 6, 7, 8 and 9 were added to separate wells to give a final concentration of 10 μg/mL, LPS was added to give a final concentration of 10 μg/mL, and the non-CpG 4010, CpG 2336, CpG 2429 and CpG 7909 polynucleotides, SEQ ID NOs: 31, 33, 35 and 34, respectively, were added to give a final concentration of 10 μg/mL.
The cells were then cultivated for 48 h. Cytokines (interleukins IL-6 and IL-10, chemokines MCP-1 and RANTES) in the culture supernatant were measured using a Milliplex™ MAP kit (Millipore Corporation, Billerica, Mass., USA) on a Bio-Plex 200 system (Bio-Rad Laboratories, Hercules, Calif., USA). MCP-1, also known as monocyte chemotactic protein, is an essential chemokine required for effective monocyte and myeloid dendritic cell activation and trafficking across endothelial and epithelial barriers (see for example Henkel et al, 2004 Ann. Neurol. 55:221-235), and RANTES (Regulated on Activation, Normal T cell Expressed and Secreted, now more commonly known as CCL5) is produced by memory phenotype T cells and is chemotactic for and activates T-cells (see for example Swanson et al, 2002 Immunity 17:605-615).

Substance	TLR activation, Optical Density at 650 nm, hTLR8 (human TLR8)	Cytokine, IL-6 (human PBMC)	Cytokine, IL-10 (human PBMC)	Cytokine, MCP-1 (human PBMC)	Cytokine, RANTES (CCL5) (human PBMC)	Chemokine (MCP-1, RANTES) inducing activity towards human PBMC (in words) (human PBMC)	Interleukin (cytokine) inducing activity towards human PBMC (in words) (human PBMC)
UUGTUU [SEQ ID NO: 2]	0.120	6 pg/mL	0 pg/mL	196 pg/mL	66 pg/mL	marginal or no	marginal or no
IIGTII [SEQ ID NO: 3]	0.128	1 pg/mL	0 pg/mL	57 pg/mL	72 pg/mL	marginal or no	marginal or no
NebGGTGNeb (DNA NGGTGN; Nebularine at both ends, sugar and linkages not given here, further chemistry not given here) [SEQ ID NO: 1, 5′-OH, 3′-OH non-DNA base-containing polynucleotide]	0.118	26 pg/mL	0 pg/mL	160 pg/mL	93 pg/mL	marginal or no	marginal or no
